# From BindingDB's records for doi:10.1021/jm020230j (Sunesis Pharmaceuticals, 2002)
# Columns and labels:
# Test in all cases: Fluorometric Assay
# Details in all cases: pH 7.4; 25 °C
# Caspase-1 = target: T1, Caspase-1 (Homo sapiens, UniProt P29466)
# T1 sequence (P29466 whole entry): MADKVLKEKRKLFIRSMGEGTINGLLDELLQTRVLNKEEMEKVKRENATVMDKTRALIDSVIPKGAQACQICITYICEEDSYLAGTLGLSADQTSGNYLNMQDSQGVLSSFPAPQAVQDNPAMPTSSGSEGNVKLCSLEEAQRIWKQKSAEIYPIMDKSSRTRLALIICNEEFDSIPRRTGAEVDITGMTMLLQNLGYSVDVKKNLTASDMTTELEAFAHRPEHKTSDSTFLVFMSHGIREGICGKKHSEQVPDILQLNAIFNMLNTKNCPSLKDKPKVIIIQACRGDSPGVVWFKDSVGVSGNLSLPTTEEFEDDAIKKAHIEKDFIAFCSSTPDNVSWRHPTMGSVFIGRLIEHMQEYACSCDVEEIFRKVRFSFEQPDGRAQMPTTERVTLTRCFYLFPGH
# Protocol: (§1) The effectiveness of compounds against the activity of human recombinant caspase-1-8 was measured using fluorometric assays. Assays were carried out in a 96-well flat bottom, polystyrene plates. […] Kinetic data were collected over a 15 min assay run at room temperature. IC50 values were calculated through a four parameter fit curve using the computer application SOFTmax PRO. Ki(apparent) values were calculated using the following equation: Ki(app) = IC50/(1 + [substrate]/Km).
# Caspase-2 = target: T2, Caspase-2 (Homo sapiens, UniProt P42575)
# T2 sequence (P42575 whole entry): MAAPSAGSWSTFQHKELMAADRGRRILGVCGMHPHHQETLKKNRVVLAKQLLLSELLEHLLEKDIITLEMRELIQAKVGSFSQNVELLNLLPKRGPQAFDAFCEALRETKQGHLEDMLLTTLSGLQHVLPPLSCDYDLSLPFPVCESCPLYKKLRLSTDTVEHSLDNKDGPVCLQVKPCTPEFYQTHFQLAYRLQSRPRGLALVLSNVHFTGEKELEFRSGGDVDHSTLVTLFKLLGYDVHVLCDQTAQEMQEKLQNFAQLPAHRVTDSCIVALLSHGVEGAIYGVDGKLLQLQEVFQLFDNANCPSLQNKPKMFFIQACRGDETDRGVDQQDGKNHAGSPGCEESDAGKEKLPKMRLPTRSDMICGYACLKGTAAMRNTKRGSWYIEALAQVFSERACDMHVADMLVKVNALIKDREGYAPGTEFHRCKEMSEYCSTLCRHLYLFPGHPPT
# Protocol: as §1
# Caspase-3 = target: T3, Caspase-3 (Homo sapiens, UniProt P42574)
# T3 sequence (P42574 whole entry): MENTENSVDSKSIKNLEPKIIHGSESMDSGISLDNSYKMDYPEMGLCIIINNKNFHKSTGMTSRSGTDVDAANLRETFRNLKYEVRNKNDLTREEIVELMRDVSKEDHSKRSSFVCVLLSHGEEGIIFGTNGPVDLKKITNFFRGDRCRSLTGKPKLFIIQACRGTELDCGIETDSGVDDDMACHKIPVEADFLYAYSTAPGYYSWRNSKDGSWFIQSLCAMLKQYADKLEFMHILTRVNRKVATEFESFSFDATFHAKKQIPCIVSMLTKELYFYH
# Protocol: as §1
# Caspase-4 = target: T4, Caspase-4 (Homo sapiens, UniProt P49662)
# T4 sequence (P49662 whole entry): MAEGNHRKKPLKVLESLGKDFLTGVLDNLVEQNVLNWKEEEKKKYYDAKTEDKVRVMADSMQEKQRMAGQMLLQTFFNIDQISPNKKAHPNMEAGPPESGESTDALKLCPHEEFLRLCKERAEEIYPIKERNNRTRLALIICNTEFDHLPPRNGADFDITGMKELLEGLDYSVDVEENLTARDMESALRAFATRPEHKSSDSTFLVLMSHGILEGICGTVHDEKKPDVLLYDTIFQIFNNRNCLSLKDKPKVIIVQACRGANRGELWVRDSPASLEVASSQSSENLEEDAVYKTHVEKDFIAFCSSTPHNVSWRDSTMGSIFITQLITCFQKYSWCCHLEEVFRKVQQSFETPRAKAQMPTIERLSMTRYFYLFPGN
# Protocol: as §1
# Caspase-6 = target: T5, Caspase-6 (Homo sapiens, UniProt P55212)
# T5 sequence (P55212 whole entry): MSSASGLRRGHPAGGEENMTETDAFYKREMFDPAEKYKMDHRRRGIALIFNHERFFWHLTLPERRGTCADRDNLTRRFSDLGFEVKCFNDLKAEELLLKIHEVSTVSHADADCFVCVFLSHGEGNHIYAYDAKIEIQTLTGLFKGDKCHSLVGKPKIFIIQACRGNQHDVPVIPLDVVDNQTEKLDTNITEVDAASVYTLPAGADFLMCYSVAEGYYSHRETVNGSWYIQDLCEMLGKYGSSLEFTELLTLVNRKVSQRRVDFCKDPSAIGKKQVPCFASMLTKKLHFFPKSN
# Protocol: as §1
# Caspase-7 = target: T6, Caspase-7 (Homo sapiens, UniProt P55210)
# T6 sequence (P55210 whole entry): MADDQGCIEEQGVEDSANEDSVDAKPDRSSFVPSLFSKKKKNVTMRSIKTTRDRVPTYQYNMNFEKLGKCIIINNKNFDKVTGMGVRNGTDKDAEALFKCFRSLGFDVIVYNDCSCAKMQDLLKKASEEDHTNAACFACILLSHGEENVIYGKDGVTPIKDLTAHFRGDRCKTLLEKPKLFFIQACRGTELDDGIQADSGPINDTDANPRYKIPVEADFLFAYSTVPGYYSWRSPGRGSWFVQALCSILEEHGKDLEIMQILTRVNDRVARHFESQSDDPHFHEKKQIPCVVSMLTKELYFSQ
# Protocol: as §1
# Caspase-8 = Caspase-8 (Homo sapiens, UniProt Q14790)
# Chain of Caspase-8 (Q14790 217-374 limits assumed): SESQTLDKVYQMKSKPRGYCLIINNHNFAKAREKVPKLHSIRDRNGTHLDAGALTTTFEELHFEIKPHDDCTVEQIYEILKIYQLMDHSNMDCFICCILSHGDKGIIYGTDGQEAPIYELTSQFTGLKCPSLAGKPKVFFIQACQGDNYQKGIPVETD
# Chain of Caspase-8 (Q14790 385-479 limits assumed): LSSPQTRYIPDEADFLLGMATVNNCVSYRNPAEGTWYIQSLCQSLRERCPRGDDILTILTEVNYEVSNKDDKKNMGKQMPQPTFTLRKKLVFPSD
# Protocol: as §1
structure (smiles),measurement,setting,value
O=C(O)C[C@H](NC(=O)c1ccc(CNS(=O)(=O)c2ccc(O)c(C(=O)O)c2)nc1)C(=O)CSCc1ccccc1Cl [(S)-5-({5-[1-Carboxymethyl-3-(2-chloro-benzylsulfanyl)-2-oxo-propylcarbamoyl]pyridin-2-ylmethyl}sulfamoyl)-2-hydroxy-benzoic Acid],Ki,Caspase-1,1.5 µM
same,Ki,Caspase-2,11 µM
same,Ki,Caspase-3,0.03 µM
same,Ki,Caspase-4,38 µM
same,Ki,Caspase-6,0.12 µM
same,Ki,Caspase-7,0.09 µM
same,Ki,Caspase-8,0.81 µM
